Reference: patent publication US10703735B2, “4-phenyl-coumarin derivatives, processes for their preparation and uses thereof for the treatment of cancer” (Lead Discovery Center GmbH, priority 2018, dated 2020)

Each compound was assayed against mitochondrial RNA-polymerase (POLRMT) (Mus musculus, UniProt Q8BKF1) (assay: Homogeneous TR-FRET assay for mitochondrial transcription activity). Conditions: homogeneous TR-FRET assay according to Example 4; read-out: mitochondrial transcription activity (IC-50).
Chain of mitochondrial RNA-polymerase (POLRMT) (Q8BKF1 42-1207): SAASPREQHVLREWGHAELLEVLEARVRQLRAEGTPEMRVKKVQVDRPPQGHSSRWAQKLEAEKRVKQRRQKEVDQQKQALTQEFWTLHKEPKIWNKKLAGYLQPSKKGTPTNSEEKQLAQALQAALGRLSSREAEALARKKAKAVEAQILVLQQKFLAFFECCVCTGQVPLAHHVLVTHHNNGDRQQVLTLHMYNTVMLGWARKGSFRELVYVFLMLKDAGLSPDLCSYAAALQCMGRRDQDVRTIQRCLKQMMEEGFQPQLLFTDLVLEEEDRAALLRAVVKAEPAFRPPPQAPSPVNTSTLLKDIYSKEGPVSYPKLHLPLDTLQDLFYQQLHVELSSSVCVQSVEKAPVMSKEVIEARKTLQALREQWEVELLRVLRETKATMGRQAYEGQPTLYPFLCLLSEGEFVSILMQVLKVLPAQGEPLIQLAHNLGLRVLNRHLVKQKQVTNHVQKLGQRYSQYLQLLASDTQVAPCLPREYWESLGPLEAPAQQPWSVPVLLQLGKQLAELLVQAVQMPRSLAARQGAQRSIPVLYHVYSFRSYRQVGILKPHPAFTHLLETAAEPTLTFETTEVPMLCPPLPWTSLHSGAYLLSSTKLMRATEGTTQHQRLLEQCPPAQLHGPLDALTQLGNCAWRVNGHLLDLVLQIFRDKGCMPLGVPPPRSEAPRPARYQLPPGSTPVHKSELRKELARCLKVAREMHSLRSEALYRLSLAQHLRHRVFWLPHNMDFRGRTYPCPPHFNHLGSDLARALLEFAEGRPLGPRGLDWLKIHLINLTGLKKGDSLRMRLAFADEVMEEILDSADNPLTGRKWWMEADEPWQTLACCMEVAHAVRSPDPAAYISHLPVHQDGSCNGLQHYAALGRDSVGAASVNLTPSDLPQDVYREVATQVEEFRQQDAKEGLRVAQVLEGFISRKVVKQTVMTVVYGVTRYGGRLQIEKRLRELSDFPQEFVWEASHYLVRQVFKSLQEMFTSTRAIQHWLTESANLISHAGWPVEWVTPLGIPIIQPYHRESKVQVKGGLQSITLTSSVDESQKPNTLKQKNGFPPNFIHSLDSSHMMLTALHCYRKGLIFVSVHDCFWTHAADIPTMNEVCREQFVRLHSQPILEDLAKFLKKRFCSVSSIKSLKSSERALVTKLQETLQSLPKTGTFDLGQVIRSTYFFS
Assay type: biochemical
Description: The TR-FRET assay was basically conducted as described in WO 2016/193231A1, especially as described in example 1 (hereby incorporated by reference). With respect to the background of the mitochondrial transcription it is referred to Falkenberg et al. (2002) and Posse et al. (Posse et al. 2015). The method monitors the activity of mitochondrial RNA-polymerase via detection of the formation of its product, a 407 bp long RNA sequence. Detection of the product is facilitated by hybridization of two DNA-oligonucleotide probes to specific and adjacent sequences within the RNA product sequence. Upon annealing of the probes, two fluorophores that are coupled directly to an acceptor nucleotide probe (ATT0647, 5′) or introduced via a coupled streptavidin interacting with a biotinylated donor nucleotide probe on the other side (Europium cryptate, 3) are brought into sufficient proximity to serve as a fluorescence-donor-acceptor pair as generally described in Walters and Namchuk (2003). Thus, a FRET signal at 665 nm is generated upon excitation at 340 nm.
Briefly, the protocol described here was applied for screening and activity determination in a low-volume 384-well microtiter plate with non-binding surface. For high-throughput application in the 1536-well microtiter plate format, volumes of the reagent mixes were adjusted, maintaining the volumetric ratio. Proteins POLRMT (NM_172551.3), TFAM (NM_009360.4) and TFB2M (NM_008249.4) were diluted from their stocks to working concentrations of 150 nM, 1.8 μM and 330 nM respectively, in a dilution buffer containing 100 mM Tris-HCl pH 8.0, 200 mM NaCl, 10% (v/v) glycerole, 2 mM glutathione (GSH), 0.5 mM EDTA and 0.1 mg/mL BSA. Protein dilutions and template DNA, comprising a pUC18 plasmid encoding the mitochondrial light strand promoter, restriction linearized proximal to the promoter 3′-end (pUC-LSP), were mixed at the twofold final assay-concentration in a reaction buffer, containing 10 mM Tris-HCl pH 7.5, 10 mM MgCl2, 40 mM NaCl, 2 mM GSH, 0.01% (w/v) Tween-20 and 0.1 mg/mL BSA.
5 μL of this mix were dispensed, depending on the chosen microtiter plate format, using multi-channel pipettes or a Multidrop® dispenser (Thermo Fisher Scientific, Waltham Mass.) into the wells of a microtiter plate and incubated at room temperature (RT) for 10 min. Chemical compounds under scrutiny in the assay were applied using contact-free acoustic droplet-dispensing (Echo520® Labcyte Inc., Sunnyvale Calif.) from 10 mM compound stocks in 100% DMSO, to a final concentration of 10 μM or in serial dilution series of the required concentration range. Equal amounts of DMSO without any compound were added to positive control samples, followed by an incubation step at RT for 10 min.
The enzymatic reaction was started by the addition of 5 μL of a mix of dNTPs in reaction buffer to a final concentration of 500 μM each. No nucleotide mix was added to negative control samples. The content of the wells was mixed using a VarioTeleshaker™ (Thermo Fisher Scientific, Waltham Mass.) at 1500 rpm for 45 sec after which the microtiter plate was centrifuged at 500×g for 1 min. The samples were incubated for 2 h at RT with humidity control to avoid evaporation. The detection reagents were prepared in a buffer that was composed, such that the enzymatic reaction was terminated due to chelating of Mg-ions and increased ionic strength, containing 50 mM Tris-HCl pH 7.5, 700 mM NaCl, 20 mM EDTA, and 0.01% (w/v) Tween-20. Importantly Eu-cryptate-coupled streptavidin had to be preincubated with a 100-fold molar excess of a random sequence oligonucleotide for 10 min at RT in the dark to block unspecific binding of single stranded RNA to the protein. Subsequently, the blocked streptavidin(-Eu) was mixed with the DNA-probes on ice and kept away from light until use. […]
`COC(=O)C1CCCN(C(=O)COc2ccc3c(-c4ccccc4)cc(=O)oc3c2)C1` (stereo not drawn) [Compound 23, methyl 1-[2-(2-oxo-4-phenyl-chromen-7-yl)oxyacetyl]piperidine-3-carboxylate] was tested, and the IC50 was 1000 to 10000 nM.
`CC(Oc1ccc2c(-c3ccccc3)cc(=O)oc2c1)C(=O)NCCN1CCOCC1` (stereo not drawn) [Compound 70, N-(2-morpholinoethyl)-2-(2-oxo-4-phenyl-chromen-7-yl)oxy-propanamide] showed an IC50 of 1000 to 10000 nM.
`CC(Oc1ccc2c(-c3ccccc3)cc(=O)oc2c1)C(=O)Nc1cccnc1` (stereo not drawn) [Compound 55, 2-(2-oxo-4-phenyl-chromen-7-yl)oxy-N-(3-pyridyl)propanamide] showed an IC50 of 1000 to 10000 nM.
For `O=C(COc1cc2oc(=O)cc(-c3ccccc3)c2cc1Cl)NC1C=CS(=O)(=O)C1` (stereo not drawn) [Compound 95, 2-(6-chloro-2-oxo-4-phenyl-chromen-7-yl)oxy-N-(1,1-dioxo-2,3-dihydrothiophen-3-yl)acetamide], the IC50 was 1000 to 10000 nM.
Compound `O=C(COc1cc2oc(=O)cc(-c3ccccc3)c2cc1Cl)NCCN1CCOCC1` [Compound 83, 2-(6-chloro-2-oxo-4-phenyl-chromen-7-yl)oxy-N-(2-morpholinoethyl)acetamide] has an IC50 of 1000 to 10000 nM.
Work on `CCOC(=O)C(C)Oc1ccc2c(-c3cccc(Cl)c3)cc(=O)oc2c1` (stereo not drawn) [Compound 4, ethyl 2-[4-(3-chlorophenyl)-2-oxo-chromen-7-yl]oxypropanoate] yielded an IC50 of 100 to 1000 nM.
`CCOC(=O)[C@H]1CCCN(C(=O)C(C)Oc2ccc3c(-c4ccccc4)cc(=O)oc3c2)C1` (mixture of isomers) [Compound 64, ethyl rac-(3S)-1-[2-(2-oxo-4-phenyl-chromen-7-yl)oxypropanoyl]piperidine-3-carboxylate] showed an IC50 of 1000 to 10000 nM.
In the case of `COC(=O)[C@@H]1CCCN(C(=O)C(C)Oc2ccc3c(-c4ccccc4)cc(=O)oc3c2)C1` (stereo partly drawn) [Compound 38, methyl (3R)-1-[2-(2-oxo-4-phenyl-chromen-7-yl)oxypropanoyl]piperidine-3-carboxylate], the IC50 is reported as 1000 to 10000 nM.
`CCOC(=O)C(C)Oc1ccc2c(-c3ccc(F)cc3)cc(=O)oc2c1` (stereo not drawn) [Compound 8, ethyl 2-[4-(4-fluorophenyl)-2-oxo-chromen-7-yl]oxypropanoate] gave an IC50 of 100 to 1000 nM.
`CC(Oc1ccc2c(-c3ccccc3)cc(=O)oc2c1)C(=O)Nc1ccccn1` (stereo not drawn) [Compound 6, 2-(2-oxo-4-phenyl-chromen-7-yl)oxy-N-(2-pyridyl)propanamide] was tested, and the IC50 was 100 to 1000 nM.
`CC(Oc1ccc2c(-c3ccccc3)cc(=O)oc2c1)C(N)=O` (stereo not drawn) [Compound 67, 2-(2-oxo-4-phenyl-chromen-7-yl)oxypropanamide] was tested, and the IC50 was 1000 to 10000 nM.
`CC(C)(C)OC(=O)COc1ccc2c(-c3ccccc3)cc(=O)oc2c1` [Compound 44, tert-butyl 2-(2-oxo-4-phenyl-chromen-7-yl)oxyacetate] was tested, and the IC50 was 100 to 1000 nM.
Work on `CC(Oc1ccc2c(-c3ccccc3)cc(=O)oc2c1)C(=O)Nc1ccncc1` (stereo not drawn) [Compound 61, 2-(2-oxo-4-phenyl-chromen-7-yl)oxy-N-(4-pyridyl)propanamide] yielded an IC50 of 1000 to 10000 nM.
With `O=C(COc1ccc2c(-c3ccccc3)cc(=O)oc2c1)Nc1ccccn1` [Compound 22, 2-(2-oxo-4-phenyl-chromen-7-yl)oxy-N-(2-pyridyl)acetamide] the IC50 was 100 to 1000 nM.
With `O=C(COc1cc2oc(=O)cc(-c3ccccc3)c2cc1Cl)N1CCOCC1` [Compound 45, 6-chloro-7-(2-morpholino-2-oxo-ethoxy)-4-phenyl-chromen-2-one] the IC50 was 1000 to 10000 nM.
`CC(Oc1cc2oc(=O)cc(-c3ccccc3)c2cc1Cl)C(=O)Nc1ccccn1` (stereo not drawn) [Compound 11, 2-(6-chloro-2-oxo-4-phenyl-chromen-7-yl)oxy-N-(2-pyridyl)propanamide] gave an IC50 of 100 to 1000 nM.
`O=C(COc1cc2oc(=O)cc(-c3ccccc3)c2cc1Cl)NC1CCCCCCC1` [Compound 86, 2-(6-chloro-2-oxo-4-phenyl-chromen-7-yl)oxy-N-cyclooctyl-acetamide] was tested, and the IC50 was 1000 to 10000 nM.
`CCOC(=O)C(CC)Oc1ccc2c(-c3ccccc3)cc(=O)oc2c1` (stereo not drawn) [Compound 71, ethyl 2-(2-oxo-4-phenyl-chromen-7-yl)oxybutanoate] was tested, and the IC50 was 1000 to 10000 nM.
